Measurements taken from patent US11661421B2, “Indolizine compounds, preparation method and use thereof” (HAIHE BIOPHARMA CO., LTD., priority 2018, dated 2023).

What follows are molecules tested against T1, PRC2 complex (EZH2 Y641F/EED/SUZ12/RbAp48/AEBP2) histone methyltransferase (Homo sapiens, UniProt Q15910, Y641F) (assay: PRC2 complex (EZH2 Y641F) activity assay, HTRF). Conditions: H3(1-50) K27me1 substrate, SAM, 4 h at room temperature, read-out: IC50 (EZH2_Y641F).
T1 construct: purchased Cisbio
Assay type: biochemical
Source text: PRC2 Complex (Ezh2y641f) Activity Assay of the Compounds:
Test Method: Homogeneous Time-Resolved Fluorescence (HTRF)
Materials: PRC2 complex (EZH2 Y641F/EED/SUZ12/RbAp48/AEBP2) histone methyltransferase used in the test was purchased from Cisbio; substrate H3(1-50) K27me1 was a product of GL Biochem; methyl donor S-(5′-Adenosyl)-L-methionine chloride dihydrochloride (SAM) was purchased from Sigma-aldrich; Eu-labeled H3K27me3, Streptavidin-XL665 and the buffer used in the test were purchased from Cisbio.
Experiment method: PRC2 complex (EZH2 Y641F/EED/SUZ12/RbAp48/AEBP2), H3(1-50)me1 substrate, methyl donor SAM and the test compound were added to each well to reach a total of 10 μL reaction system and reacted in dark at room temperature for 4h. 5 μL of Eu-labeled H3K27 Me3 antibody and 5 μL of Streptavidin-XL665 were added to each well, mixed uniformly, and incubated at room temperature for 1 h. The fluorescence values at 620 nm and 665 nm were measured with a multi-label microplate analysis system (PerkinElmer Envision), and the HTRF signal ratio (665 nm/620 nm) was calculated for each well. The IC50 values of the compounds were calculated using SoftMax Pro 5.4.1 software.

T1 sequence (Q15910 whole entry Y641F): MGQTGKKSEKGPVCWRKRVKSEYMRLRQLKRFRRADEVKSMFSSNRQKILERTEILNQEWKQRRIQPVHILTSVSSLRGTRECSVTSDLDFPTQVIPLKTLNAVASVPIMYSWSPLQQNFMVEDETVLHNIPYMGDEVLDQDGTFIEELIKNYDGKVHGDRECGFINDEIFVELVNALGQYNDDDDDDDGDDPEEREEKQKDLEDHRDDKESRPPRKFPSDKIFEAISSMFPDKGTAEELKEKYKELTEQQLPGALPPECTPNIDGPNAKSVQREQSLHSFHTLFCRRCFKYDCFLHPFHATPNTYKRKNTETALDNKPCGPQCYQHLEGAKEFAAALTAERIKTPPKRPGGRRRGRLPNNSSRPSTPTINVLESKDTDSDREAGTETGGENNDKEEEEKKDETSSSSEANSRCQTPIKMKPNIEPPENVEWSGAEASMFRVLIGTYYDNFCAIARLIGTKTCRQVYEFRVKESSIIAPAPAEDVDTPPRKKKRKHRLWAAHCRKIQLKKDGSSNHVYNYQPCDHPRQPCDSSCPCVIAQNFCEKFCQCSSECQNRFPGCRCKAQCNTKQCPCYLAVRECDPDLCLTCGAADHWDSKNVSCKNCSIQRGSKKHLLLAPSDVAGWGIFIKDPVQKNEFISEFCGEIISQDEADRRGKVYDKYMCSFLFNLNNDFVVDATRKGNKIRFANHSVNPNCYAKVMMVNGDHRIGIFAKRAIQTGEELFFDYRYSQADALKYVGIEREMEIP
T1 sequence (O75530 whole entry partner): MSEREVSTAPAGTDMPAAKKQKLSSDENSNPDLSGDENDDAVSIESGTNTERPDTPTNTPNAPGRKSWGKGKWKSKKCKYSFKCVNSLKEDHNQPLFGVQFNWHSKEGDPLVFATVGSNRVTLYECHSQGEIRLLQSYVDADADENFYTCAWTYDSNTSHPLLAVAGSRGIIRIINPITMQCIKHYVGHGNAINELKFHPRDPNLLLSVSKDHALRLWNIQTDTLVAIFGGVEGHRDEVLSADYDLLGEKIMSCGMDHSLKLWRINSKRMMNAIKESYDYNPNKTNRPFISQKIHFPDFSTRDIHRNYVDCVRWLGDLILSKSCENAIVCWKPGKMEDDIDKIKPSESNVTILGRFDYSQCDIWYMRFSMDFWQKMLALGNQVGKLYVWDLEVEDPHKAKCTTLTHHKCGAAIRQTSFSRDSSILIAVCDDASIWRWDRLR
T1 sequence (Q15022 whole entry partner): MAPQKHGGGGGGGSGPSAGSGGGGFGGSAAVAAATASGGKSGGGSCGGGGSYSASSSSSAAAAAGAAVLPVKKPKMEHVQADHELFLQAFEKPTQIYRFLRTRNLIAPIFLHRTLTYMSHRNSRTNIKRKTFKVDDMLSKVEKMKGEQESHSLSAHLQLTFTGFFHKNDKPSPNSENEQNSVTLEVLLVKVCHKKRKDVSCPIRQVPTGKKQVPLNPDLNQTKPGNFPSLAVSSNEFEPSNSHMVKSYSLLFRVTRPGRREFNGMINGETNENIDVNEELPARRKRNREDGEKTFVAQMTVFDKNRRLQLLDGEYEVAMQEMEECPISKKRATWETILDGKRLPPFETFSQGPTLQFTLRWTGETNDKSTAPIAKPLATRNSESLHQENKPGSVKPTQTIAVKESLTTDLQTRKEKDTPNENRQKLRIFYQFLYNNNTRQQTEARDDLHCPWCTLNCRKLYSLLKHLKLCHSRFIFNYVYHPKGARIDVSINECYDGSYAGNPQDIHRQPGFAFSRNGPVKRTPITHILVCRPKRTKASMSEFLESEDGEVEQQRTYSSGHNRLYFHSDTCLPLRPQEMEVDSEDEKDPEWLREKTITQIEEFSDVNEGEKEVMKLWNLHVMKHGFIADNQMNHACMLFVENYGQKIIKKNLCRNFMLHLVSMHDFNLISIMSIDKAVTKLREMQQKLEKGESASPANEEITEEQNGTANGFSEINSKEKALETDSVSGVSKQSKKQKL
T1 sequence (Q09028 whole entry partner): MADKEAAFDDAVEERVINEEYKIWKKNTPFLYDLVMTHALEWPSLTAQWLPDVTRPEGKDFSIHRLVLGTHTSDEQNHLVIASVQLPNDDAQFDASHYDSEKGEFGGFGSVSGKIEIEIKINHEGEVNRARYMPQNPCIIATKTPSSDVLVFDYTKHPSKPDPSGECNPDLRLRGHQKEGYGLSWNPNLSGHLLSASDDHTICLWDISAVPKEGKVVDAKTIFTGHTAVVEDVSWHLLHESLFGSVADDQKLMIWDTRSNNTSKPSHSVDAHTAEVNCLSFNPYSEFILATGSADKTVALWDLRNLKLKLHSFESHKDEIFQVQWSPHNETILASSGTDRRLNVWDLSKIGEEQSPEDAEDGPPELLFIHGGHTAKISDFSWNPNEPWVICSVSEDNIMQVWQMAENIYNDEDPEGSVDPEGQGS
T1 sequence (Q6ZN18 whole entry partner): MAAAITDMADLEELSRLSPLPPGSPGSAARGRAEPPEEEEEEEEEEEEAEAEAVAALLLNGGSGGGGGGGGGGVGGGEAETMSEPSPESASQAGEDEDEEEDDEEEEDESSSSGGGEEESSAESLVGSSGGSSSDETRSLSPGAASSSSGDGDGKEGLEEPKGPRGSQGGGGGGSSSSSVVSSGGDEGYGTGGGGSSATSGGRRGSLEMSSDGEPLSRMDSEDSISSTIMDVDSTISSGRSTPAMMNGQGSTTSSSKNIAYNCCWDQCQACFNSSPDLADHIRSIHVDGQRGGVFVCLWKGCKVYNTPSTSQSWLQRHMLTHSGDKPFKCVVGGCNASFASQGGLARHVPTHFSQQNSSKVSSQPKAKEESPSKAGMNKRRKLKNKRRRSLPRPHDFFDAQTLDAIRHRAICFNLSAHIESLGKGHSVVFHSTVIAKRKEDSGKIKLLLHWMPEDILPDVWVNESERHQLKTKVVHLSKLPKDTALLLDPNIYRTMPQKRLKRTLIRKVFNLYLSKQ

Row | Compound | IC50 [nM]
1 | CNc1cc(-c2ccn3c(C(C)=C4CCN(CC(F)(F)F)CC4)c(C)c(C(=O)NCc4c(OC)cc(C)[nH]c4=O)cc23)ccn1 [compound 5, N-((4-methoxy-6-methyl-2-oxo-1,2-dihydropyridin-3-yl)methyl)-6-methyl-1-(2-(methylamino)pyridin-4-yl)-5-(1-(1-(2,2,2-trifluoroethyl)piperidin-4-alkenylene)ethyl)indolizine-7-carboxamide] | 6.73
2 | COc1cc(C)[nH]c(=O)c1CNC(=O)c1cc2c(-c3ccnc(N(C)C)c3)ccn2c(C(C)=C2CCN(CC(F)(F)F)CC2)c1C [compound 4, 1-(2-(dimethylamino)pyridin-4-yl)-N-((4-methoxy-6-methyl-2-oxo-1,2-dihydropyridine-3-yl)methyl)-6-methyl-5-(1-(1-(2,2,2-trifluoroethyl)piperidin-4-alkenylene)ethyl)indolizine-7-formamide] | 8.82
3 | CC=C(c1c(C)c(C(=O)NCc2c(OC)cc(C)[nH]c2=O)cc2c(-c3ccnc(N(C)C)c3)ccn12)N1CCOCC1 [compound 1, 1-(2-(dimethylamino)pyridin-4-yl)-N-((4-methoxy-6-methyl-2-oxo-1,2-dihydropyridin-3-yl)methyl)-6-methyl-5-(1-morpholinylpropyl-1-en-1-yl)indolizine-7-formamide] | 11.4
4 | C=C(c1c(C)c(C(=O)NCc2c(OC)cc(C)[nH]c2=O)cc2c(-c3ccc(C)nn3)ccn12)N1CCN(CC(F)(F)F)CC1 [compound 3, N-((4-methoxy-6-methyl-2-oxo-1,2-dihydropyridin-3-yl)methyl)-6-methyl-1-(6-methylpyridazin-3-yl)-5-(1-(4-(2,2,2-trifluoroethyl)piperazin-1-yl)vinyl)indolizine-7-carboxamide] | 4.91
